Reference: article PMC12027946, “Ionic and Non-Ionic Counterparts Based on Bis(Uracilyl)Alkane Moiety with Highest Selectivity Towards Acetylcholinesterase for Protection Against Organophosphate Poisoning and Treating Alzheimer’s Disease” (International Journal of Molecular Sciences, 2025)
Several values for one entry are separate records, joined by “and”; a condition that tells them apart may be missing. Identical values can stand only once. Like-named read-outs stand apart in the source and are kept apart here.

What was measured:
human AChE [1] = target: T1, human AChE (Homo sapiens, UniProt P22303); assay: In vitro cholinesterase inhibition (Ellman), AChE; assay type: biochemical; conditions: Table 2; human AChE; read-out: IC50 AChE
T1 construct: purchased Sigma-Aldrich
Protocol: (§1) Inhibitory activities of the tested compounds against AChE and BChE were measured according to Ellman et al.. Enzyme-catalysed hydrolysis of ATCHh was carried out at 25 °C in 0.1 M phosphate buffer (pH 8.0) containing 0.25 U AChE, 1 mM ATCHh as substrates, and 0.1 mM of DTNB. In experiments with BuChE, 0.1 M phosphate buffer (pH 7.0) and BuTChh as a substrate were used. The tested compounds were pre-incubated with the enzyme for two minutes prior to the addition of the substrate and the subsequent recording of hydrolysis kinetics. […] A sample without an inhibitor was used as a control (100% cholinesterase activity). A sample without a substrate was used as a blank. Experiments were performed in triplicate.

BChE from human plasma = target: T2, BChE from human plasma (Homo sapiens, UniProt P06276); assay: In vitro cholinesterase inhibition (Ellman), BuChE; assay type: biochemical; conditions: Table 2; human BuChE; read-out: IC50 BuChE
T2 construct: butyrylcholiesterase from human plasma; purchased Sigma-Aldrich; host or cells: human plasma
Protocol: as §1

human AChE [2] = target: T1, human AChE; assay: Inhibition constants (Dixon and Cornish–Bowden plots), AChE; assay type: biochemical
Protocol: Experiments were performed using four different concentrations of ATCh as a substrate for AChE, and with BuTCh as a substrate for BuChE. According to the analysis of Dixon and Cornish–Bowden plots for bisuracil 2b, AChE and BuChE inhibition is of a mixed type characterised both by competitive inhibition (Kci) and uncompetitive inhibition (Kui) components. For AChE, Kci was determined to be 55.7 ± 8.1 pM while Kui = 156 ± 18 pM (Figure 3A,B), and Kci = 0.13 ± 0.02 mM while Kui = 0.7 ± 0.06 mM for BuChE (Figure 3C,D). Inhibition of AChE and BuChE by bisuracil 3c was of a mixed type. For the AChE constant, Kci was 0.7 ± 0.04 nM while Kui 4.45 ± 1.76 nM (Figure 4A,B); for the BuChE constant, Kci = 0.04 ± 0.007 мM while Kui = 0.68 ± 0.08 мM (Figure 4C,D).
A UV-1800 Shimadzu (Shimadzu Co., Kyoto, Japan) spectrophotometer was utilised to conduct the measurements. The final enzyme concentration in the assays was in the picomolar range. In order to ascertain the levels of spontaneous hydrolysis of the enzyme and substrate in the absence of an inhibitor, controls were performed for each substrate concentration. The change in absorption was then recorded over a period of three minutes. The inhibition constants were determined from a Dixon plot and Cornish–Bowden transformation.

[3] = Acute toxicity, single i.p. injection; conditions: CD-1, mouse, in vivo, ip, mice
Protocol: Toxicological experiments were performed using a single i.p. injection of the tested compounds in CD-1 mice weighing 20–25 g. Stock solutions of the tested compounds were diluted in ethanol or water. The final ethanol dose was 100 mg/kg. Nine different doses of the tested compounds were used with 12 mice per dose. Animals were observed 7 days after injection, and symptoms of toxicity were recorded.

[4] = tested on: scopolamine-induced amnesia in mice; assay: Novel object recognition test, scopolamine-induced amnesia; assay type: in vivo; conditions: scopolamine 1.5 mg/kg
Protocol: This study explored the ability of bisuracil 3c to counteract scopolamine-induced amnesia in mice, utilising behavioural assessments conducted through the novel object recognition test. […] The induction of amnesia was facilitated by the i.p. injection of scopolamine (1.5 mg/kg) 50 min prior to testing. […]. An equivalent amount of the vehicle was administered to a control group of mice.
The experiments were carried out on CD1 mice of both sexes weighing 24–25 g. The novel object recognition test was conducted over a period of three days. On the first day, the mice were placed individually into the square testing arena with black walls (50 cm in length, 50 cm in width, 38 cm in height) for 5 min without any objects. On the second day, two identical objects were placed in the central part of the arena, and the mice were allowed to explore the objects for 10 min. Test compounds were administered prior to testing on the second day. The induction of amnesia was facilitated by i.p. injection of scopolamine (1.5 mg/kg) 50 min prior to testing. Tested compounds were administered i.p. 30 min prior to testing. The control group of animals was administered with an equivalent amount of vehicle. On the third day, the mice were presented with a familiar and a novel object for 10 min. The time of exploration of each object by the mice was recorded using a digital camera. After each test, the arena was cleaned with a solution of 70% ethanol. At the end of the test, the preference index (exploration of novel object/total exploration time × 100) was calculated.

T1 sequence (P22303 32-614): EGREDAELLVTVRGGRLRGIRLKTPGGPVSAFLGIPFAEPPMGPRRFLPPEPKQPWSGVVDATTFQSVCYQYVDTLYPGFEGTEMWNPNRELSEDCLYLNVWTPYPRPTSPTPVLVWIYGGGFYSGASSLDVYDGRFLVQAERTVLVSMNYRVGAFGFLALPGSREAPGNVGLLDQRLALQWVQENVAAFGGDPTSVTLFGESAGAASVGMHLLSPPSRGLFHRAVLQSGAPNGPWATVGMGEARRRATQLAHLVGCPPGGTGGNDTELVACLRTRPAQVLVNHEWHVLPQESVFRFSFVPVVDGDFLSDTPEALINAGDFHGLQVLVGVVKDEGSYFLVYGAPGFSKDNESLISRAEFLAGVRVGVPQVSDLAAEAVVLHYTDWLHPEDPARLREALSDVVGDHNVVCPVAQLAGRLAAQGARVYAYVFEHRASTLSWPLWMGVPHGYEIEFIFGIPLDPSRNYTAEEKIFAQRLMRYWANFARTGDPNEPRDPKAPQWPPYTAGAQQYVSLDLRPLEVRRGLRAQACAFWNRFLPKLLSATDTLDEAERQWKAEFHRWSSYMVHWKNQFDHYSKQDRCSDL
T2 sequence (P06276 29-602): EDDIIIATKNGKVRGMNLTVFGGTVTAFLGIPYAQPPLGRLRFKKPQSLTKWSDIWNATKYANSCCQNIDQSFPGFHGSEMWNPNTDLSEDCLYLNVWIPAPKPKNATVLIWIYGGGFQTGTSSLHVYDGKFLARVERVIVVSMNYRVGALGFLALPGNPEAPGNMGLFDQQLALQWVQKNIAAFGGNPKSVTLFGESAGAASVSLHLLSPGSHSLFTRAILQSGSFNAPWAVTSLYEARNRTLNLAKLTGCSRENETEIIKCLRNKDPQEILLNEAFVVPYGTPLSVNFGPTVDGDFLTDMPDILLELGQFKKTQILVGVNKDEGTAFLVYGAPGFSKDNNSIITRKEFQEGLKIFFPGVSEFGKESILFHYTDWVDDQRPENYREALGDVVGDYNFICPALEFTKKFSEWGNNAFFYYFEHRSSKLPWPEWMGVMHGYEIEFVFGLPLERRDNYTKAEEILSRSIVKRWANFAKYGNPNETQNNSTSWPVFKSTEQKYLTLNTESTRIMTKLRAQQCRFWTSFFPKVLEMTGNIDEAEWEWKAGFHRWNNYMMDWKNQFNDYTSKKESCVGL

In the case of `CCN(CCCCCn1c(=O)ccn(CCCCCn2c(C)cc(=O)n(C)c2=O)c1=O)Cc1ccccc1C#N` [3c], the IC50 (human AChE [1]) is reported as 2.78 nM and 2.8 nM, the IC50 (BChE from human plasma) is reported as 28000 nM and the “Kui (uncompetitive inhibition constant), AChE” value (human AChE [2]; ATCh as substrate) is reported as 4.45 ± 1.76 nM. For the same compound, the Ki (human AChE [2]; ATCh as substrate, read-out: Kci (competitive inhibition constant), AChE) was 0.7 ± 0.04 nM, the “type of AChE inhibition” value (human AChE [2]; Dixon and Cornish–Bowden plots) was “mixed type” and the LD50 at 7 days ([3]; observed 7 days, read-out: LD50 (median lethal dose)) was 22.8 mg/kg. For the same compound, the LD50 at 7 days ([3]; read-out: LD50 95% confidence limits) was 15 to 28.7 mg/kg, the “effect on the preference index” value ([4]; 3c 2 mg/kg i.p. 30 min prior to testing) was “no significant effect” and the “increase in the preference for the novel object compared to the scopolamine-treated group” value ([4]; 3c 5 mg/kg i.p. 30 min prior to testing, p = 0.01) was 30.5%.
